Patent US8629103B2, “Treatment of non-proliferative cystic disease of the breast” (New York University, priority 2010, dated 2014)
“Also recorded” adds a separate entry of the source. Starred links: 1 amine or outer side, 2 acyl side, 3 side chain; linkers in the order of their positions; H or OH if unused. Non-standard residues stand in square brackets, D forms with d. Residues, ends and D or L forms follow the SMILES beside them. Groups on a side chain read outwards from the residue. *: point of attachment. Ethylenediamine = C(CN[*:2])N[*:1]; Hyp = O=C(O)[C@@H]1C[C@@H](O)CN1; Phg = N[C@H](C(=O)O)c1ccccc1; CO = O=C([*:1])[*:2]; Bn = c1ccc(C*)cc1

Legend:
[1] = system: IGF-I receptor, ERK, and AKT; experiment: Western blots of phosphorylation of IGF-I receptor, ERK and AKT in treated Brca1LoxP/Brca1LoxP mice; type: in vivo; settings: 4 month old Brca1LoxP/Brca1LoxP females; 7 days; PQ401 100 mg/kg thrice a week intraperitoneal; pasireotide 10 μg/kg/h by Alzet pump
Protocol: Western blots showing that the increased phosphorylation of IGF-I receptor and its downstream mediators ERK and AKT in Brca1^LoxP/Brca1^LoxP females is reduced by treatment with 100 mg/kg PQ401 thrice a week and 10 μg/kg/h pasireotide. The two WT samples are from age-matched, untreated C57Bl/6 control mice. PQ401 was administered by intraperitoneal injections, pasireotide by Alzet pump Model 2001. For both drugs, the course of treatment was 7 days.
FIG. 6 depicts Western blots showing the effects of IGF-I inhibition on the phosphorylation of IGF-I receptor, ERK, and AKT in 4 month old Brca1^LoxP/Brca1^LoxP. The increased phosphorylation of IGF-I receptor and its downstream mediators ERK and AKT in Brca1^LoxP/Brca1^LoxP females is reduced by treatment with 100 mg/kg PQ401 thrice a week and 10 μg/kg/h pasireotide. The two WT samples are from age-matched, untreated C57Bl/6 control mice. PQ401 was administered by intraperitoneal injections, pasireotide by Alzet pump Model 2001. For both drugs, the course of treatment was 7 days.

[2] = system: Brca1^LoxP/Brca1^LoxP mice; experiment: Mammary gland phenotype (whole mounts, hematoxylin-eosin sections, duct width, HANs) of treated Brca1LoxP/Brca1LoxP mice; type: in vivo; settings: for mammary gland phenotype (whole mounts, histology): 7 days; for width of mammary gland ducts / ductal dilatation: 10 μg/kg/h for 7 days by Alzet pump, vs vehicle (water)
Protocol: Representative whole mounts of mammary glands from 4 month old Brca1^LoxP/Brca1^LoxP females treated with water (upper photomicrographs) or 10 μg/kg/h pasireotide (lower photomicrographs) for 7 days. Both water and pasireotide were administered by Alzet pump Model 2001.
FIG. 8 depicts effects of pasireotide on the mammary gland phenotype of Brca1^LoxP/Brca1^LoxP mice. Representative hematoxylin-eosin sections of mammary glands from 4 month old Brca1^LoxP/Brca1^LoxP females treated with water (left) or pasireotide (center and right) for 7 days. Both water and pasireotide were administered by Alzet pump Model 2001. The dosage of pasireotide was 10 μg/kg/h.
FIG. 9 depicts effects of pasireotide on duct width of mammary glands of Brca1^LoxP/Brca1^LoxP mice. […] Both water and pasireotide were administered by Alzet pump Model 2001. Six animals were treated with pasireotide and five animals were treated with water (control). […]
The present inventor has made the surprising discovery that mice comprising loxP sites flanking exon 11 of the BRCA1 gene (formally known as Brca1^loxP/loxP, but also referred to herein as LoxP mice) display profoundly abnormal mammary gland development at an early age. LoxP mice were acquired from the National Institutes of Health Mouse Repository. The strain is Stock Brcal^tm2Cxd and the Strain code is 01XC8. Mice were maintained in accordance with the standards established by the Association for Assessment and Accreditation of Laboratory Animal Care (AAALAC) (New York University).
Representative whole mounts of mammary glands from 4 month old Brca1^LoxP/Brca1^LoxP females treated with water (upper photomicrographs) or 10 μg/kg/h pasireotide (lower photomicrographs) for 7 days are shown. Both water and pasireotide were administered by Alzet pump Model 2001. […] These findings were confirmed on a histological level as shown in FIG. 8 which depicts representative hematoxylin-eosin sections of mammary glands from 4 month old Brca1^LoxP/Brca1^LoxP females treated with water (left) or pasireotide (center and right) for 7 days. Both water and pasireotide (10 μg/kg/h) were administered by Alzet pump Model 2001. […] Both water and pasireotide were administered by Alzet pump Model 2001. […]

[3] = system: Ki67-positive epithelial cells in the mammary glands; experiment: Ki67 immunohistochemistry of mammary epithelial cells in treated Brca1LoxP/Brca1LoxP mice; type: in vivo; settings: 4 month old Brca1LoxP/Brca1LoxP mice; 7 days of treatment; vs vehicle
Description: The frequency of Ki67-positive mammary epithelial cells in C57Bl/6 controls treated with water (WT, water) is also presented. *, p<0.05 as compared with WT, water; **, p<0.01 as compared with WT, water; a, p<0.05 as compared with LoxP, water; b, p<0.01 as compared with LoxP, water.
The frequency of Ki67-positive mammary epithelial cells in C57Bl/6 controls treated with water (WT, water) is also presented. *, p<0.05 as compared with WT, water; **, p<0.01 as compared with WT, water; a, p<0.05 as compared with LoxP, water; b, p<0.01 as compared with LoxP, water. […] This finding is significant because Ki67 is a cancer antigen that is found in growing, dividing cells, but is absent in the resting phase of cell growth. Accordingly, Ki67 is viewed as a good tumor cell marker.

[4] = target: IGF-I receptor (Homo sapiens, UniProt P08069); settings: cited from earlier work
Chain of IGF-I receptor (P08069 31-1367, species assumed): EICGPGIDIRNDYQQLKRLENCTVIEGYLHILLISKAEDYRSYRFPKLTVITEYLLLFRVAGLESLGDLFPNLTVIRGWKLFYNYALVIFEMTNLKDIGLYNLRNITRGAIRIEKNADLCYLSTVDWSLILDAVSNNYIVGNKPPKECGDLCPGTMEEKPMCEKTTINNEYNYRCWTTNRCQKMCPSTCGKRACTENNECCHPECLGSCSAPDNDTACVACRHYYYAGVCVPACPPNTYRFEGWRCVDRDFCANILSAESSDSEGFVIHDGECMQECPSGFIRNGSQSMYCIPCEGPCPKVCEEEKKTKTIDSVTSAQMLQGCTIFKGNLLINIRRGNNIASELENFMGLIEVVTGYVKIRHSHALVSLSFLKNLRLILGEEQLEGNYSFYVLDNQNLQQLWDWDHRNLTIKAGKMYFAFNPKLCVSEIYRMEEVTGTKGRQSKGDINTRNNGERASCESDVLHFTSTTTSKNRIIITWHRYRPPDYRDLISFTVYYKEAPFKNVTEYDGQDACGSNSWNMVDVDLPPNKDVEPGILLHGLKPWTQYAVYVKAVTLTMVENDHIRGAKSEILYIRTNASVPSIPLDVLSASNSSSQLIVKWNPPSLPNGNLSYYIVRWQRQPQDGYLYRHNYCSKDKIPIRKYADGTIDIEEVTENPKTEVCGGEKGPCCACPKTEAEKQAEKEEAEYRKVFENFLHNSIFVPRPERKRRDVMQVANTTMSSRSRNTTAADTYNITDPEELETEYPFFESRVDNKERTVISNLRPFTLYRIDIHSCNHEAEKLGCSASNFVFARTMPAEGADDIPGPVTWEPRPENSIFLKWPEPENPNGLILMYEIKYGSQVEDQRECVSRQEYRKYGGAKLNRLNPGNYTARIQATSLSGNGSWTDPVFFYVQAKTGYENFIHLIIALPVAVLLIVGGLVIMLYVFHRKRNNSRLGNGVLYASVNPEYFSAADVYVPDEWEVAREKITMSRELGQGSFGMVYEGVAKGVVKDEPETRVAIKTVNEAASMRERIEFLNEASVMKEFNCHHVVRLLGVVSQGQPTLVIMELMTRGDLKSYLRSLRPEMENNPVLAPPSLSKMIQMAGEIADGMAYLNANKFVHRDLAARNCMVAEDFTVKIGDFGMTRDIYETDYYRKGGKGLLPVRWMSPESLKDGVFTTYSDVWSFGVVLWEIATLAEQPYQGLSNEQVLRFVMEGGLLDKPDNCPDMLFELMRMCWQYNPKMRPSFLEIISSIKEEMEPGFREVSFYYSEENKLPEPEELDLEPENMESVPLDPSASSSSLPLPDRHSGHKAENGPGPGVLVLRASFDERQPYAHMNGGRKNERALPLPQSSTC

[5] = system: somatostatin receptors; settings: cited from earlier work; for somatostatin receptors bound: of the 5 somatostatin receptors
[6] = system: mammary development in rats; settings: Ruan et al. 2006; cited from earlier work
[7] = system: growth hormone and estradiol induced mammary hyperplasia; settings: Kleinberg et al. 2011; cited from earlier work
[8] = system: breast cancer; settings: women with certain hyperplastic lesions of the breast; clinical evidence; cited from earlier work
[9] = 4 month old Brca1LoxP/Brca1LoxP females, pasireotide 10 μg/kg/h Alzet pump vs water, PQ401 intraperitoneal vs 8% ethanol/Tween 80 in PBS

Molecule: COc1ccc(Cl)cc1NC(=O)Nc1cc(C)nc2ccccc12 [PQ401]
- phosphorylation of IGF-I receptor and its downstream mediators ERK and AKT [1]: reduced
- mammary gland phenotype (whole mounts, histology) [2, 9]: dramatically reduces
- Ki67-positive epithelial cells in the mammary glands (cell proliferation) [3]: reduces; also recorded: significantly reduced
- IGF-I receptor inhibition [4]: very potent and specific

Molecule: NCCCC[C@@H]1NC(=O)[C@@H](Cc2c[nH]c3ccccc23)NC(=O)[C@H](c2ccccc2)NC(=O)[C@@H]2C[C@@H](OC(=O)NCCN)CN2C(=O)[C@H](Cc2ccccc2)NC(=O)[C@H](Cc2ccc(OCc3ccccc3)cc2)NC1=O [pasireotide] (cyclo([Hyp]([CO-Ethylenediamine])[Phg][dW]KY(Bn)F))
- phosphorylation of IGF-I receptor and its downstream mediators ERK and AKT [1]: reduced
- width of mammary gland ducts / ductal dilatation ([2]; 4 month old Brca1LoxP/Brca1LoxP females): effective in decreasing
- width of mammary gland ducts / ductal dilatation ([2]; 4 month old Brca1LoxP/Brca1LoxP females, listed as SOM230): significant effect on inhibiting; also recorded: significantly reduced
- mammary gland phenotype (whole mounts, histology) [2, 9]: dramatically reduces
- formation of HANs (hyperplastic alveolar nodules) ([2]; LoxP mice at 4 months of age treated with SOM230): preventing
- number of ducts ([2]; affected LoxP animals, SOM230 or control vehicle for 1 week): unchanged
- Ki67-positive epithelial cells in the mammary glands (cell proliferation) [3]: reduces; also recorded: significantly reduced
- affinity for SSTR3 and/or SSTR5 receptors [5]: has affinity
- somatostatin receptors bound [5]: 4 of the 5
- IRS-1 phosphorylation in the mammary gland (IGF-I action) [6]: reduction
- growth hormone secretion from the pituitary [6]: inhibitory effect
- mammary development [6]: prevents
- efficacy compared with tamoxifen in preventing growth hormone and estradiol-induced mammary hyperplasia [7]: at least as effective as tamoxifen
- growth hormone and estradiol induced mammary hyperplasia [7]: prevents

Molecule: CC/C(=C(\c1ccccc1)c1ccc(OCCN(C)C)cc1)c1ccccc1 [tamoxifen]
- growth hormone and estradiol induced mammary hyperplasia [7]: prevent
- prevention of the development of cancer [8]: about 50%

Molecule: somatostatin-14 [SS-14]
- mammary gland phenotype (whole mounts, histology) ([2]; 9 month old Brca1LoxP/Brca1LoxP females, Alzet pump, vs water): reduces
- number of HANs ([2]; nine month old LoxP animals treated for a week): impressive reduction
- somatostatin receptors bound [5]: all
